Test results published in paper PMC6522510 (Nature Communications, 2019).
Like-named read-outs stand apart in the source and are kept apart here.

Tests used:
Set-up in all cases: species or system AML cell lines (8); Primary HTS, single concentration about 10 uM, Cell Titer Glo viability; log10 luminescence, per cent inhibition relative to cycloheximide control
Settings in all cases: 72 h, inhibitor
CMK = test system: CMK
U937 = test system: U937
CHRF288-11 = test system: CHRF288-11
ML-2 = test system: ML-2
CMS = test system: CMS
M07e = test system: M07e
MOLM-13 = test system: MOLM-13
MV4-11 = test system: MV4-11
[1] = relative to cycloheximide control, log10 luminescence

Structure (SMILES)	CMK %inh (CMK; [1]) [%]	U937 %inh (U937; [1]) [%]	CHRF288-11 %inh (CHRF288-11; [1]) [%]	ML-2 %inh (ML-2; [1]) [%]	CMS %inh (CMS; [1]) [%]	M07e %inh (M07e; [1]) [%]	MOLM-13 %inh (MOLM-13; [1]) [%]	MV4-11 %inh (MV4-11; [1]) [%]	CMK %inh (CMK; 10 µM) [%]	U937 %inh (U937; 10 µM) [%]	CHRF288-11 %inh (CHRF288-11; 10 µM) [%]	ML-2 %inh (ML-2; 10 µM) [%]	CMS %inh (CMS; 10 µM) [%]	M07e %inh (M07e; 10 µM) [%]	MOLM-13 %inh (MOLM-13; 10 µM) [%]	MV4-11 %inh (MV4-11; 10 µM) [%]
COc1cc(N2CCN(C(C)C)CC2)ccc1Nc1nc(Nc2cccc3ncccc23)c2cc[nH]c2n1 [SJ000573300-1, U24088/12/1]	79.69	16.14	47.23	8.95	0.4893	3.774	33.94	11.79								
COc1cc(N2CCN(C(C)C)CC2)ccc1Nc1nc(Nc2ccc(F)cc2C(=O)NC[C@@H](O)CO)c2cc[nH]c2n1 [SJ000573301-1, U23662/84/1]	-2.061	47.45	7.394	23.23	-0.165	18.85	61.15	49.16								
COc1cc(N2CCN(C(C)C)CC2)ccc1Nc1nc(Nc2cccc(F)c2C(=O)O)c2cc[nH]c2n1 [SJ000573302-1, U24644/141/1]	-4.539	-3.308	2.245	1.383	-1.742	1.407	-2.196	-1.676								
NS(=O)(=O)c1ccc(Nc2ncc(-c3ccccc3)o2)cc1 [SJ000573303-1, U14961/32/1]									30.97	6.622	3.992	4.386	6.689	5.73	74.24	64.71
CN1CCN(CCCNc2nc3ccc(Oc4ccc(NC(=O)Nc5cc(C(F)(F)F)ccc5F)cc4)cc3[nH]2)CC1 [SJ000573304-1, T278/35/2]	2.938	2.101	-0.361	1.341	2.836	5.692	79.64	57.09								
COc1cccc(COc2cc(-n3cnc4ccccc43)sc2C(N)=O)c1 [SJ000573305-1, U17845/44/3]	1.494	5.488	7.099	3.033	2.005	2.73	4.701	0.1016								
CNC(=O)c1sc(-n2cnc3cc(OC)c(OC)cc32)cc1OCc1ccccc1C(F)(F)F [SJ000573306-1, U22436/130/1]	19.06	5.347	8.101	3.023	0.3871	-3.893	15.4	7.836								
COc1cc2ncn(-c3cc(OCc4ccccc4C(F)(F)F)c(C(=O)N(C)C)s3)c2cc1OC [SJ000573307-1, U22436/129/1]	4.289	7.074	2.061	-1.707	-4.162	-4.272	15.46	8.508								
COC(=O)c1sc(-n2cnc3cc(OC)c(OC)cc32)cc1OCc1ccccc1C(F)(F)F [SJ000573308-1, U22436/119/1]	0.3974	29.63	-2.151	-1.915	4.6	0.7415	-0.8474	-1.071								
O=C1Nc2ccccc2C1=C1CCc2cc(O)ccc21 [SJ000573309-1, C1338/186/2]	25.36	12.06	18.33	4.662	4.291	0.9027	102.5	57.39								
Nc1nccc(C#Cc2cncnc2Nc2ccc(OCc3cccc(F)c3)c(Cl)c2)n1 [SJ000573310-1, U16767/158/1]	11.36	80.64	34.34	58.71	85.29	42.98	9.977	82.16								
COc1cc(Nc2ncc3c(C)nc(-c4cccc(C(F)(F)F)c4)n3n2)cc(OC)c1OC [SJ000573311-1, U19240/54/1]	13.06	12.36	12.88	7.183	21.85	19.43	85.98	65.83								
CCn1c(-c2nonc2N)nc2c(C#CC(C)(C)O)nc(OC[C@@H](N)c3ccccc3)cc21 [SJ000573312-1, LS204454-145A1 | LS204454-146A1]	11.49	37.57	122.3	7.922	24.21	29.99	19.15	7.841								
CCn1c(-c2nonc2N)nc2c(C#CC(C)(C)O)nc(OC[C@H](N)c3ccccc3)cc21 [SJ000573312-2, LS204454-145A1 | LS204454-146A1]	111.5	44.96	83.17	28.64	42.42	46.62	14.91	22.87								
CCn1c(-c2nonc2N)nc2c(C#CC(C)(C)O)nc(OCCNC)cc21 [SJ000573313-1, MS205583-134A1]	13.56	64.14	6.621	3.569	10.14	22.08	19.98	55.12								
CCn1c(-c2nonc2N)nc2c(C#CC(C)(C)O)nc(CN3CCCC3)cc21 [SJ000573314-1, MR206418-021A1]	2.979	4.345	4.422	-0.4194	3.945	-3.096	-1.58	2.964								
NS(=O)(=O)c1ccc(Nc2cc(-c3ccc(O)c(F)c3)n[nH]2)cc1 [SJ000573315-1, T350/112/30]	-1.653	0.1443	-4.039	0.5816	-2.048	-0.4073	77.64	53.96								
N#Cc1c(NC(=O)CN2CCOCC2)sc2c1CCCC2 [SJ000573317-1, ST/830472]	-5.985	3.525	1.546	1.88	0.5199	3.047	-0.7057	-2.657								
c1cnn2ncc(-c3ccnc(Nc4ccc5c(c4)OCCO5)n3)c2c1 [SJ000573318-1, U18020/87/1]	109.1	81.34	71.61	59.44	106	112.6	99.59	79.44								
COc1cc(Nc2nccc(Nc3ccc4c(C)n[nH]c4c3)n2)cc(OC)c1OC [SJ000573319-1, U17574/67/1]	114.1	62.59	80.56	29.66	87.58	71.44	98.77	77.98								
CCn1cc(-c2ccnc3[nH]ccc23)c(-c2cccc(NC(=O)Nc3ccc(OCc4ccccc4)cc3)c2)n1 [SJ000573320-1, R11459/78/21]	77.69	1.634	55.15	18.08	4.452	13.09	71.46	7.18								
Nc1ncc(-c2cccc(S(N)(=O)=O)c2)c2scc(-c3ccc(F)c(Cl)c3)c12 [SJ000573321-1, T398/119/1]	13	8.699	3.763	3.028	4.233	3.71	16.59	8.004								
